This passage reports Ki results from patent publication US8344008B2 (Janssen Pharmaceutica NV, priority 2007, dated 2013).

The Ki is the dissociation constant of the complex between target and ligand, obtained from inhibition or displacement.

Counter-ions that a name gives are not always drawn.

The test deals with T1, recombinant human LTA4 hydrolase (rhLTA4H) (Homo sapiens, UniProt P09960).
T1 construct: made in house; host or cells: Spodoptera frugiperda (Sf-9) cells, baculovirus (pFastBac1)
T1 sequence (P09960 1-611): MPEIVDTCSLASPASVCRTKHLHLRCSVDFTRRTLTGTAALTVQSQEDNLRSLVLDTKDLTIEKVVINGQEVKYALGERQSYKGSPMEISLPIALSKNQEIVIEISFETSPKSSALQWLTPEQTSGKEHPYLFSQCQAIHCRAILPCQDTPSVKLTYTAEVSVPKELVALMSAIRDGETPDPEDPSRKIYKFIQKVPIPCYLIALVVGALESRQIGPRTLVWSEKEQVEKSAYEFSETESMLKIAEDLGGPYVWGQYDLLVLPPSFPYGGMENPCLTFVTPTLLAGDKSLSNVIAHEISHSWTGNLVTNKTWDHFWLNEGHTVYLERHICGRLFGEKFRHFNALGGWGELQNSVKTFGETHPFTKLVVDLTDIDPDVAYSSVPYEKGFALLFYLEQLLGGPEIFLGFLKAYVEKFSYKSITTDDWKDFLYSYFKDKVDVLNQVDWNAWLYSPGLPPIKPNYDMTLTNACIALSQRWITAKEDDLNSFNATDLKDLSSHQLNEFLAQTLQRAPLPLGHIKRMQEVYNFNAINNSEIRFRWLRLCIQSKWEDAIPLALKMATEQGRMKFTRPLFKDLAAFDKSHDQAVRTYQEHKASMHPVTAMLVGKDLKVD
The test can be described thus: Recombinant Human LTA4 Hydrolase Assay for LTA4 Hydrolase Inhibitor Activity. The settings on record: average of results obtained; LTB4 quantified by enzyme-linked immunoassay. The class given is biochemical. In short, it runs like this:
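LTB4 formation, quantified by EIA after 10 min at rt, was the read-out once 9 ng LTA4 (free acid) was added to recombinant human enzyme (36 ng, Sf-9 expressed) that had sat 10 min with compound. Buffer: 0.1 M potassium phosphate pH 7.4 with fatty-acid-free BSA; IC50 by 4-parameter fit.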
As to `c1cc(CN2C[C@@H]3C[C@H]2CN3)cc(Oc2nc3ccccc3s2)c1` [Example 69, (S,S)-2-[3-(2,5-Diaza-bicyclo[2.2.1]hept-2-ylmethyl)-phenoxy]-benzothiazole hydrochloride], the Ki turned out to be 450 nM. As for `CS(=O)(=O)N[C@@H]1C[C@H]2CC[C@@H](C1)N2CCc1ccc(Oc2nc3c(Cl)cccc3s2)cc1` [Example 162, meso-exo-N-(8-{2-[4-(4-Chloro-benzothiazol-2-yloxy)-phenyl]-ethyl}-8-aza-bicyclo[3.2.1]oct-3-yl)-methanesulfonamide], the Ki was found to be 188 nM.

As for `CS(=O)(=O)N[C@@H]1C[C@H]2CC[C@@H](C1)N2CCOc1ccc(Oc2nc3ccc(Cl)cc3s2)cc1` [Example 225, meso-exo-N-(8-{2-[4-(6-Chloro-benzothiazol-2-yloxy)-phenoxy]-ethyl}-8-aza-bicyclo[3.2.1]oct-3-yl)-methanesulfonamide], the Ki was 116 nM. As to `COCC(=O)N1C[C@@H]2C[C@H]1CN2CCc1ccc(Oc2nc3ccccc3s2)cc1` [Example 42], the Ki amounted to 34 nM. On to `CC(C)(O)C(=O)N1C[C@@H]2C[C@H]1CN2CCOc1ccc(Oc2nc3ccccc3s2)cc1` [Example 25, (S,S)-1-(5-{2-[4-(Benzothiazol-2-yloxy)-phenoxy]-ethyl}-2,5-diaza-bicyclo[2.2.1]hept-2-yl)-2-hydroxy-2-methyl-propan-1-one], for which the Ki was found to be 8 nM.

As for `O=C([C@H]1CCCO1)N1CC2CN(Cc3ccc(Oc4nc5ccccc5s4)cc3)CC2C1` (stereo partly drawn) [Example 100, (R)-{5-[4-(Benzothiazol-2-yloxy)-benzyl]-hexahydro-pyrrolo[3,4-c]pyrrol-2-yl}-(tetrahydro-furan-2-yl)-methanone], the Ki was found to be 168 nM. For the compound `CC(=O)N1CCC2CN(Cc3ccc(Oc4nc5ccccc5s4)cc3)CC2C1` (stereo not shown) [Example 89, 1-{2-[4-(Benzothiazol-2-yloxy)-benzyl]-octahydro-pyrrolo[3,4-c]pyridin-5-yl}-ethanone], the Ki was determined as 6 nM. Then `CC(=O)N1C[C@@H]2C[C@H]1CN2Cc1ccc(Oc2nc3cc(F)ccc3s2)cc1` [Example 170, (S,S)-1-{5-[4-(5-Fluoro-benzothiazol-2-yloxy)-benzyl]-2,5-diaza-bicyclo[2.2.1]hept-2-yl}-ethanone], with 90 nM; and `O=C(N1CCOCC1)N1CC2CN(Cc3ccc(Oc4nc5ccccc5s4)cc3)CC2C1` (stereo not shown) [Example 115, {5-[4-(Benzothiazol-2-yloxy)-benzyl]-hexahydro-pyrrolo[3,4-c]pyrrol-2-yl}-morpholin-4-yl-methanone], with 10 nM.

On to `O=C(CF)N1CC2CN(Cc3ccc(Oc4nc5ccccc5s4)cc3)CC2C1` (stereo not shown) [Example 112, 1-{5-[4-(Benzothiazol-2-yloxy)-benzyl]-hexahydro-pyrrolo[3,4-c]pyrrol-2-yl}-2-fluoro-ethanone], for which the Ki came to 2 nM.

Consider `NC(=O)N1CC2CN(Cc3ccc(Oc4nc5c(F)cccc5s4)cc3F)CC2C1` (stereo not shown) [Example 161, 5-[2-Fluoro-4-(4-fluoro-benzothiazol-2-yloxy)-benzyl]-hexahydro-pyrrolo[3,4-c]pyrrole-2-carboxylic acid amide], for which the Ki is 43 nM.

`CC(=O)N1CC2CCC(C1)N2Cc1ccc(Oc2nc3ccccc3s2)cc1F` [Example 77, meso-1-{8-[4-(Benzothiazol-2-yloxy)-2-fluoro-benzyl]-3,8-diaza-bicyclo[3.2.1]oct-3-yl}-ethanone]: the Ki is 12 nM.

With `CC(=O)N1C[C@H]2C[C@@H]1CN2CCOc1ccc(Oc2nc3ccc(Cl)cc3s2)cc1` [Example 177, (R,R)-1-(5-{2-[4-(6-Chloro-benzothiazol-2-yloxy)-phenoxy]-ethyl}-2,5-diaza-bicyclo[2.2.1]hept-2-yl)-ethanone], the Ki was determined as 94 nM. Then `NC(=O)N[C@@H]1C[C@H]2CC[C@@H](C1)N2CCc1ccc(Oc2nc3ccc(F)cc3s2)cc1` [Example 179, meso-exo-(8-{2-[4-(6-Fluoro-benzothiazol-2-yloxy)-phenyl]-ethyl}-8-aza-bicyclo[3.2.1]oct-3-yl)-urea], with 47 nM; and `NC(=O)N1[C@@H]2CC[C@H]1C[C@H](NCCOc1ccc(Oc3nc4ccc(F)cc4s3)cc1)C2` [Example 267, meso-exo-3-{2-[4.(6-Fluoro-benzothiazol-2-yloxy)-phenoxy]-ethylamino}-8-aza-bicyclo[3.2.1]octane-8-carboxylic acid amide], with 296 nM. To `NC(=O)N[C@@H]1C[C@H]2CC[C@@H](C1)N2CCOc1ccc(Oc2nc3cccc(F)c3s2)cc1` [Example 282, meso-exo-(8-{2-[4-(7-Fluoro-benzothiazol-2-yloxy)-phenoxy]-ethyl}-8-aza-bicyclo[3.2.1]oct-3-yl)-urea] belongs 8 nM. `CC(=O)N[C@H]1C[C@H]2CC[C@@H](C1)N2Cc1ccc(Oc2nc3c(C)cccc3s2)cc1` [Example 72, meso-endo-N-{8-[4-(4-Methyl-benzothiazol-2-yloxy)-benzyl]-8-aza-bicyclo[3.2.1]oct-3-yl}-acetamide]: the Ki worked out at 98 nM. To `O=C(O)c1ccc(CN2CC3CN(Cc4ccc(Oc5nc6ccccc6s5)cc4)CC3C2)cc1` (stereo not shown) [Example 154, 4-{5-[4-(Benzothiazol-2-yloxy)-benzyl]-hexahydro-pyrrolo[3,4-c]pyrrol-2-ylmethyl)-benzoic acid] belongs 32 nM; to `CS(=O)(=O)N1C[C@@H]2C[C@H]1CN2Cc1ccc(Oc2nc3ccc(F)cc3s2)cc1` [Example 230, (S,S)-6-Fluoro-2-[4-(5-methanesulfonyl-2,5-diaza-bicyclo[2.2.1]hept-2-ylmethyl)-phenoxy]-benzothiazole], 397 nM; to `CC(=O)N[C@H]1C[C@H]2CC[C@@H](C1)N2Cc1ccc(Oc2nc3ccccc3s2)cc1` [Example 52, meso-endo-N-{8-[4-(Benzothiazol-2-yloxy)-benzyl]-8-aza-bicyclo[3.2.1]oct-3-yl}-acetamide], 2 nM.

`CC(=O)N1C[C@@H]2C[C@H]1CN2CCOc1ccc(Oc2nc3ccccc3s2)cc1` [Example 9, (S,S)-1-(5-{2-[4-(Benzothiazol-2-yloxy)-phenoxy]-ethyl}-2,5-diaza-bicyclo[2.2.1]hept-2-yl)-ethanone]: the Ki worked out at 3 nM. Then `NC(=O)N1C2CCC1CN(Cc1ccc(Oc3nc4ccccc4s3)cc1)C2` [Example 59, meso-3-[4-(Benzothiazol-2-yloxy)-benzyl]-3,8-diaza-bicyclo[3.2.1]octane-8-carboxylic acid amide], with 174 nM; and `NC(=O)N1[C@@H]2CC[C@H]1C[C@@H](NCCOc1ccc(Oc3nc4cc(Cl)ccc4s3)cc1)C2` [Example 257, meso-endo-3-{2-[4-(5-Chloro-benzothiazol-2-yloxy)-henoxy]-ethylamino}-8-aza-bicyclo[3.2.1]octane-8-carboxylic acid amide], with 490 nM; and `O=C(C1CCOC1)N1CC2CN(Cc3ccc(Oc4nc5ccccc5s4)cc3)CC2C1` (stereo not shown) [Example 102, {5-[4-(Benzothiazol-2-yloxy)-benzyl]-hexahydro-pyrrolo[3,4-c]pyrrol-2-yl}-(tetrahydro-furan-3-yl)-methanone], with 46 nM.

As for `O=C(CO)N1C[C@@H]2C[C@H]1CN2CCc1ccc(Oc2nc3ccccc3s2)cc1` [Example 15, (S,S)-1-(5-{2-[4-(Benzothiazol-2-yloxy)-phenyl]-ethyl}-2,5-diaza-bicyclo[2.2.1]hept-2-yl)-2-hydroxy-ethanone], the Ki is 18 nM. Then `c1ccc2sc(Cc3ccc(CN4C[C@@H]5C[C@H]4CN5)cc3)nc2c1` [Example 4D, (S,S)-2-[4-(2,5-Diaza-bicyclo[2.2.1]hept-2-ylmethyl)-benzyl]-benzothiazole dihydrochloride], with 260 nM; and `O=C(CC(F)(F)F)N1CC2CN(Cc3ccc(Oc4nc5ccccc5s4)cc3)CC2C1` (stereo not shown) [Example 113, 1-{5-[4-(Benzothiazol-2-yloxy)-benzyl]-hexahydro-pyrrolo[3,4-c]pyrrol-2-yl}-3,3,3-trifluoro-propan-1-one], with 100 nM. As for `NC(=O)N1C[C@H]2CCN(Cc3ccc(Oc4nc5ccccc5s4)cc3)[C@H]2C1` [Example 138, (R,R)-1-[4-(Benzothiazol-2-yloxy)-benzyl]-hexahydro-pyrrolo[3,4-b]pyrrole-5-carboxylic acid amide], the Ki was 29 nM.

For the compound `CS(=O)(=O)N1C[C@@H]2C[C@H]1CN2CCOc1ccc(Oc2nc3cccc(Cl)c3s2)cc1` [Example 182, (S,S)-7-Chloro-2-{4-[2-(5-methanesulfonyl-2,5-diaza-bicyclo[2.2.1]hept-2-yl)-ethoxy]-phenoxy}-benzothiazole], the Ki was found to be 1590 nM. Then `NCC(=O)N1C2CCC1CN(Cc1ccc(Oc3nc4ccccc4s3)cc1)C2` [Example 55, meso-2-Amino-1-{3-[4-(benzothiazol-2-yloxy)-benzyl]-3,8-diaza-bicyclo[3.2.1]oct-8-yl}-ethanone], with 116 nM; and “meso-endo-[4-(6-Chloro-benzothiazol-2-yloxy)-benzyl]-(8-methanesulfonyl-8-aza-bicyclo[3.2.1]oct-3-yl)-amine [Example 228]”, with 1590 nM.
